Experimental data: US9380788B2, “Package for plant antimicrobial treatment” (priority 2013, dated 2016)

Test system: pepper plants
Assay type: in vivo
Conditions: plants sprayed with oregano/sesame oil emulsion made with the emulsifier

| Molecule | Phytotoxicity on pepper plants |
| --- | --- |
| Triton X 100 [Triton X100] | phytotoxicity |
| CCCCCCCCCCCCCCCCCC(=O)[O-].[Na+] [sodium stearate, Sodium Stearate] | very vital |
| CCCCCCCCCCCCOS(=O)(=O)[O-].[Na+] [SDS] | phytotoxicity |
| CCCCCCCC/C=C\CCCCCCCC(=O)OCCOCC(OCCO)C1OCC(OCCO)C1OCCO (stereo not shown) [Tween 80] | phytotoxicity |
